{"source": "patent US20220047527A1", "about": "“FOOD-AND-DRINK COMPOSITION CONTAINING ASTAXANTHIN” (AstaReal Co., Ltd., priority 2016, published 2022)", "key": {"[1]": {"system": "human having a sense of fatigue", "assay": "VAS (Visual Analog Scale) analysis before/after mental and physical loads", "assay_type": "in vivo", "details": "for VAS, Clear-headedness (FIG. 5) / VAS, Concentration (FIG. 5) / VAS, Feeling of body heaviness (FIG. 5) / VAS, Frustration (FIG. 5) / VAS, Mood (FIG. 5) / VAS, Motivation (FIG. 5): vs control group", "experimental": "(§1) A placebo-controlled, randomized, double-blind, parallel-group study was employed for ingestion of the test food, and two groups, namely, the control group (placebo group) with ingestion of a capsule not containing astaxanthin and the astaxanthin group with ingestion of a capsule containing 6 mg of astaxanthin (120 mg of Haematococcus algae extract and 10 mg of tocotrienol mixture derived from palm oil) were compared through a double-blind method. For ingestion of the test food, the subjects were instructed to ingest one capsule twice daily (total 12 mg of astaxanthin (240 mg of Haematococcus algae extract and 20 mg of tocotrienol mixture derived from palm oil) in two capsules per day), one after breakfast (or after the first meal of the day if no breakfast was taken) and the other after dinner, with water or lukewarm water within 30 min of eating. The overall duration for ingestion was 8 weeks (12 weeks only for the OSA sleep analysis). The subjects were also instructed to record their test food ingestion, drinking, and exercise in a diary every day, from the first day to the last day of ingestion.\nThe assessment to the subjects consisted of seven questions: “Sense of Fatigue (“sense of fatigue caused by mental load” or “sense of fatigue caused by mental load and physical load”) (best sensation with no fatigue—worst sensation of being too tired to do anything)”, “Clear-headedness (very clear—very dull)”, “Concentration (able to concentrate very easily—unable to concentrate at all)”, “Motivation (highly motivated—totally unmotivated)”, “Mood (very happy—as depressed as I can be)”, “Frustration (not frustrated at all—very frustrated)”, and “Feeling of body heaviness (feeling my body is very light—feeling my body is very heavy)”. For each question, the subjects were instructed to draw a vertical line by intuition on a 100 mm horizontal line to indicate their condition at the time, with the far left end indicating the best condition and the far right end indicating the worst condition. A VAS score was derived by measuring with a ruler the distance from the far left end to the intersection with the vertical line. VAS analysis was performed five times in total in one day: in the morning of the day of assessment (before load application), after application of a physical load and a mental load, at the end of the assessment visit (after a rest period), after mental load application (calculation load; Uchida-Kraepelin test), and after a rest period after mental load application. To determine transient changes in fatigue, the load-induced change was calculated by subtracting the pre-load value from the values after mental load application, after a rest period after mental load application, after application of both loads, and after a rest period therefor. In addition, to determine the effect of test food ingestion alone, ingestion-induced change was calculated by subtracting the pre-load (pre-ingestion) value at week 0 from the pre-load value after 4-week ingestion and after 8-week ingestion."}, "[2]": {"system": "human having a sense of fatigue", "assay": "POMS (Profile of Mood States) analysis", "assay_type": "in vivo", "experimental": "as §1\nUsing the self-administered POMS 2 in Japanese, adult short version (Kanekoshobo, Tokyo, Japan), the subjects answered 35 questions by rating their “current mood” on a 5-point scale (0=not at all; 1=a little; 2=moderately; 3=quite a bit; 4=extremely). Responses to each question were scored according to the POMS scoring system for the seven scales: anger-hostility, confusion-bewilderment, depression-dejection, fatigue-inertia, tension-anxiety, vigor-activity, and friendliness, and the raw scores were converted into TMD scores with a conversion table. The POMS was administered 3 times in total in one day: in the morning of the day of assessment (before load application), after mental load application (calculation load; Uchida-Kraepelin test), and at the end of the day of assessment (after the rest period). To determine transient changes in fatigue, the load-induced change was calculated by subtracting the pre-load value from the values after mental load application and after a rest period therefor. In addition, to determine the effect of test food ingestion alone, ingestion-induced change was calculated by subtracting the pre-load (pre-ingestion) value at week 0 from the pre-load value after 8-week ingestion."}, "salivary cortisol": {"system": "salivary cortisol", "assay": "Measurement of salivary cortisol (CLIA)", "assay_type": "in vivo, human", "details": "for salivary cortisol concentration: after 8-week ingestion", "description": "Salivary cortisol, which was examined as a biochemical index for a mental load, is used as a stress marker because of simplicity of measurement due to the high correlation with blood cortisol, and known to be increased by an acute mental stress, for example, caused at making a speech in front of others or doing mental calculation or by continuous, high-intensity exercise. Because the salivary cortisol concentration is known to show circadian variation, being high in the morning and then declining as the night approaches, mental load application (calculation load; Uchida-Kraepelin test) was performed in the morning in this study. Salivary secretory immunoglobulin A (sIgA) is an antibody produced by B cells that inhibits the proliferation of pathogens on the mucosa of the oral cavity, airway, intestines, and other organs. It is known that reduction of sIgA in saliva is associated with the development of upper respiratory tract infection and that salivary sIgA concentration decreases under chronic stress and increases in a relaxed state.\nPrior to saliva sampling, the subjects were instructed to brush their teeth and place a cotton swab (Salivette) in the mouth for 2 minutes without chewing to thoroughly soak the cotton swab with saliva. Saliva samples were collected twice, in the morning of the day of assessment (before load application) and after mental load application (calculation load; Uchida-Kraepelin test). Salivary cortisol concentration was measured with a competitive chemiluminescent immunoassay (CLIA) kit (Chemilumi ACS-E Cortisol II; Siemens Healthcare Diagnostics Inc.)."}, "[3]": {"system": "human having a sense of fatigue", "assay": "Cycling task on a bicycle ergometer, task performance with a physical load", "assay_type": "in vivo", "details": "between the groups (FIG. 19)", "experimental": "A physical load was applied by a cycling task on a bicycle ergometer. Specifically, the subjects were instructed to pedal for 30 min with a rotation rate of the pedal adjusted to maintain the heart rate at 120 to 130 HR for men and 110 to 120 HR for women. The magnitude of the load was set at a constant level of 80 W for men and 70 W for women. The distance cycled (km) in 30 min was measured, which was used as the task performance with a physical load."}, "[4]": {"details": "after application of both loads, after 4-week ingestion, vs control group (FIG. 4)"}, "[5]": {"details": "after application of both loads, after 8-week ingestion, vs control group (FIG. 4)"}, "[6]": {"details": "after application of both loads"}, "[7]": {"details": "after the rest period (after both loads), after 4-week ingestion, vs control group (FIG. 4)"}, "[8]": {"details": "after the rest period (after both loads), after 8-week ingestion, vs control group (FIG. 4)"}, "[9]": {"details": "after the rest period (after both loads)"}}, "data": [{"smiles": "CC1=C(/C=C/C(C)=C/C=C/C(C)=C/C=C/C=C(C)/C=C/C=C(C)/C=C/C2=C(C)C(=O)C(O)CC2(C)C)C(C)(C)CC(O)C1=O", "note": "(stereo not drawn) [astaxanthin, 3,3′-dihydroxy-β,β-carotene-4,4′-dione]", "values": [{"measurement": "VAS load-induced change, Clear-headedness", "setting": "[1]; [4]", "value": "marginally significant improvement and enhancement"}, {"measurement": "VAS load-induced change, Mood", "setting": "[1]; [4]", "value": "significant improvement"}, {"measurement": "VAS load-induced change, Clear-headedness", "setting": "[1]; [5]", "value": "marginally significant improvement and enhancement"}, {"measurement": "VAS load-induced change, Concentration", "setting": "[1]; [5]", "value": "marginally significant improvement and enhancement"}, {"measurement": "VAS load-induced change, Feeling of body heaviness", "setting": "[1]; [5]", "value": "significant improvement"}, {"measurement": "VAS load-induced change, Mood", "setting": "[1]; [5]", "value": "marginally significant improvement"}, {"measurement": "VAS load-induced change, Motivation", "setting": "[1]; [5]", "value": "marginally significant enhancement"}, {"measurement": "VAS, Clear-headedness (FIG. 5)", "setting": "[1]; [6]", "value": "marginally significant improvement"}, {"measurement": "VAS, Concentration (FIG. 5)", "setting": "[1]; [6]", "value": "marginally significant improvement"}, {"measurement": "VAS, Feeling of body heaviness (FIG. 5)", "setting": "[1]; [6]", "value": "significant improvement"}, {"measurement": "VAS, Frustration (FIG. 5)", "setting": "[1]; [6]", "value": "resolution of frustration"}, {"measurement": "VAS, Mood (FIG. 5)", "setting": "[1]; [6]", "value": "marginally significant improvement"}, {"measurement": "VAS, Motivation (FIG. 5)", "setting": "[1]; [6]", "value": "marginally significant improvement"}, {"measurement": "VAS load-induced change, Frustration", "setting": "[1]; after mental load application, after 8-week ingestion, vs control group (FIG. 4)", "value": "significant improvement"}, {"measurement": "VAS, Clear-headedness (FIG. 5)", "setting": "[1]; after mental load application", "value": "improvement"}, {"measurement": "VAS, Concentration (FIG. 5)", "setting": "[1]; after mental load application", "value": "improvement"}, {"measurement": "VAS, Feeling of body heaviness (FIG. 5)", "setting": "[1]; after mental load application", "value": "reduction of feeling of body heaviness"}, {"measurement": "VAS, Frustration (FIG. 5)", "setting": "[1]; after mental load application", "value": "significant improvement"}, {"measurement": "VAS, Mood (FIG. 5)", "setting": "[1]; after mental load application", "value": "improvement"}, {"measurement": "VAS, Motivation (FIG. 5)", "setting": "[1]; after mental load application", "value": "improvement"}, {"measurement": "VAS load-induced change, Clear-headedness", "setting": "[1]; [7]", "value": "marginally significant improvement and enhancement"}, {"measurement": "VAS load-induced change, Mood", "setting": "[1]; [7]", "value": "marginally significant improvement"}, {"measurement": "VAS load-induced change, Clear-headedness", "setting": "[1]; [8]", "value": "marginally significant improvement and enhancement"}, {"measurement": "VAS load-induced change, Concentration", "setting": "[1]; [8]", "value": "marginally significant improvement and enhancement"}, {"measurement": "VAS load-induced change, Feeling of body heaviness", "setting": "[1]; [8]", "value": "marginally significant improvement"}, {"measurement": "VAS load-induced change, Frustration", "setting": "[1]; [8]", "value": "significant improvement"}, {"measurement": "VAS, Clear-headedness (FIG. 5)", "setting": "[1]; [9]", "value": "marginally significant improvement"}, {"measurement": "VAS, Concentration (FIG. 5)", "setting": "[1]; [9]", "value": "marginally significant improvement"}, {"measurement": "VAS, Feeling of body heaviness (FIG. 5)", "setting": "[1]; [9]", "value": "marginally significant improvement"}, {"measurement": "VAS, Frustration (FIG. 5)", "setting": "[1]; [9]", "value": "significant improvement"}, {"measurement": "VAS, Mood (FIG. 5)", "setting": "[1]; [9]", "value": "improvement"}, {"measurement": "VAS, Motivation (FIG. 5)", "setting": "[1]; [9]", "value": "improvement"}, {"measurement": "POMS ingestion-induced change, Friendliness (F)", "setting": "[2]; after 8-week ingestion minus pre-ingestion, vs control group (FIG. 6)", "value": "significant high value"}, {"measurement": "POMS load-induced change, Vigor-activity (VA)", "setting": "[2]; after the rest period, after 8-week ingestion, vs control group (FIG. 6)", "value": "marginally significant high value"}, {"measurement": "POMS improvement in Vigor-activity (VA) compared with quercetin/isoquercetin", "setting": "[2]; vs literature: 250 mg quercetin and 100 mg isoquercetin for 42 to 54 days", "value": "larger"}, {"measurement": "POMS improvement in Vigor-activity (VA), AH, FI and CB compared with bonito stock", "setting": "[2]; vs literature: bonito stock morning and evening over two weeks", "value": "larger"}, {"measurement": "salivary cortisol concentration after vs before mental load application", "setting": "salivary cortisol; after 4-week ingestion (FIG. 7)", "value": "significantly lower"}, {"measurement": "salivary cortisol concentration", "setting": "salivary cortisol; after mental load application", "value": "0.38 ± 0.03", "unit": "µg/dL"}, {"measurement": "salivary cortisol concentration", "setting": "salivary cortisol; before mental load application", "value": "0.44 ± 0.03", "unit": "µg/dL"}, {"measurement": "cycling distance", "setting": "[3]; after 4-week ingestion", "value": "no significant difference"}, {"measurement": "cycling distance", "setting": "[3]; after 8-week ingestion", "value": "no significant difference"}]}]}
